Publication PMC3681751, “Identification of a Novel Antimicrobial Peptide from Human Hepatitis B Virus Core Protein Arginine-Rich Domain (ARD)” (PLoS Pathogens, 2013)
Residues, ends and D or L forms follow the SMILES beside them.

Test system: ICR mice
Assay: Acute in vivo toxicity
Set-up: species or system mouse
Conditions: three-week old male ICR mice, 7 days, n = 5
Method: Three-week old male ICR mice (19 to 21 g) were purchased from BioLASCO (Taiwan). Overnight culture of bacteria in BHI broth (Difco) was subcultured in fresh BHI broth to log phase. Inoculums were diluted in BHI broth to indicated densities. To test the acute toxicity of ARD peptide in vivo, ICR male mice were inoculated intraperitoneally (i.p.) with 10 and 20 mg/kg HBc147-183 in PBS, respectively. Each group contained 5 mice. After peptide injection, the number of dead mice was recorded daily for 7 days post-injection. To test the antimicrobial activity of the ARD peptide in vivo, all mice were inoculated i.p. with Staphylococcus aureus ATCC 19636 (4×10^6 CFU/mouse) in BHI broth. Peptide HBc147-183 (10 mg/kg) was administered i.p. at 1, 1.5 and 2 hours post-inoculation. PBS (10 ml/kg) control was administered at 1 hour post-inoculation. […] Mortality was monitored daily for 7 days post-inoculation. […] The mice were anesthetized first before transferring to the IVIS imaging system (IVIS spectrum), and luminescence was measured with an exposure time of 1 minutes or less. The image system measured the number of photons and translated the data to false color images that depicted the region of strong luminescence with red, moderate luminescence with yellow and green, and mild luminescence with blue. […] Total flux (RLU) of region of interest (ROI) was quantified by the IVIS imaging software.

SMILES: CC(C)[C@H](NC(=O)[C@@H](NC(=O)[C@@H](N)[C@@H](C)O)C(C)C)C(=O)N[C@@H](CCCNC(=N)N)C(=O)N[C@@H](CCCNC(=N)N)C(=O)N[C@@H](CCCNC(=N)N)C(=O)NCC(=O)N[C@@H](CCCNC(=N)N)C(=O)N[C@@H](CO)C(=O)N1CCC[C@H]1C(=O)N[C@@H](CCCNC(=N)N)C(=O)N[C@@H](CCCNC(=N)N)C(=O)N[C@@H](CCCNC(=N)N)C(=O)N[C@H](C(=O)N1CCC[C@H]1C(=O)N[C@@H](CO)C(=O)N1CCC[C@H]1C(=O)N[C@@H](CCCNC(=N)N)C(=O)N[C@@H](CCCNC(=N)N)C(=O)N[C@@H](CCCNC(=N)N)C(=O)N[C@@H](CCCNC(=N)N)C(=O)N[C@@H](CO)C(=O)N[C@@H](CCC(N)=O)C(=O)N[C@@H](CO)C(=O)N1CCC[C@H]1C(=O)N[C@@H](CCCNC(=N)N)C(=O)N[C@@H](CCCNC(=N)N)C(=O)N[C@@H](CCCNC(=N)N)C(=O)N[C@@H](CCCNC(=N)N)C(=O)N[C@@H](CO)C(=O)N[C@@H](CCC(N)=O)C(=O)N[C@@H](CO)C(=O)N[C@@H](CCCNC(=N)N)C(=O)N[C@@H](CCC(=O)O)C(=O)N[C@@H](CO)C(=O)N[C@@H](CCC(N)=O)C(=O)N[C@@H](CS)C(=O)O)[C@@H](C)O [HBc147-183] (H-TVVRRRGRSPRRRTPSPRRRRSQSPRRRRSQSRESQC-OH; N-terminus and C-terminus assumed)
- Survival after peptide injection (in vivo toxicity) (10 mg/kg i.p.): All mice were alive
- Survival after peptide injection (in vivo toxicity) (20 mg/kg i.p.): All mice were alive
